Results from ChEMBL document CHEMBL1201862, “PubChem BioAssay data set” (2004).
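96-well plates; 48 h exposure; 5 concentrations. Endpoints by linear interpolation between flanking doses. Not reached: highest tested concentration assigned. GI50 marks 50% less growth.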 Calls of active or inactive are those of the source. Rule as the data show it: active = GI50 up to about 1.1 µM and inactive = higher.

How the values were obtained:
Test in all cases: NCI anticancer screen, dose series, 48 h
MDA-MB-435 = tested on: MDA-MB-435
Hs-578T = tested on: Hs-578T
A549 = tested on: A549
U-251 = tested on: U-251
HCT-116 = tested on: HCT-116
SF-539 = tested on: SF-539
T47D = tested on: T47D
HCT-15 = tested on: HCT-15
SF-295 = tested on: SF-295
NCI-H23 = tested on: NCI-H23
HL-60 = tested on: HL-60
SNB-19 = tested on: SNB-19
UACC-62 = tested on: UACC-62
KM12 = tested on: KM12
NCI/ADR-RES = tested on: NCI/ADR-RES
SN12C = tested on: SN12C
TK-10 = tested on: TK-10

O=C(Nc1ccc(Nc2ccc3c(c2)C(=O)c2ccccc2C3=O)c2c1C(=O)c1ccccc1C2=O)c1ccccc1
GI50 (MDA-MB-435): 3.53 µM (inactive) | GI50 (Hs-578T): 32.4 µM (inactive) | GI50 (A549): > 72.6 µM (inactive) | GI50 (U-251): 19.5 µM (inactive) | GI50 (HCT-116): > 100 µM (inactive) | GI50 (SF-539): > 23.7 µM (inactive) | GI50 (T47D): 42.1 µM (inactive) | GI50 (HCT-15): 7.62 µM | GI50 (SF-295): 31.4 µM (inactive) | GI50 (NCI-H23): 79.4 µM (inactive) | GI50 (HL-60): 17.7 µM (inactive) | GI50 (SNB-19): > 80.5 µM (inactive) | GI50 (UACC-62): > 100 µM (inactive) | GI50 (KM12): 34.2 µM (inactive) | GI50 (NCI/ADR-RES): 22 µM (inactive) | GI50 (SN12C): > 100 µM (inactive) | GI50 (TK-10): 95.3 µM (inactive)

O=C1CCCC2(c3ccccc3)Nc3ccccc3N12 (stereo unspecified)
GI50 (MDA-MB-435): > 100 µM (inactive) | GI50 (Hs-578T): > 100 µM (inactive) | GI50 (A549): > 100 µM (inactive) | GI50 (U-251): > 100 µM (inactive) | GI50 (HCT-116): > 100 µM (inactive) | GI50 (SF-539): > 100 µM (inactive) | GI50 (T47D): > 100 µM (inactive) | GI50 (HCT-15): > 100 µM | GI50 (SF-295): 97.1 µM (inactive) | GI50 (NCI-H23): > 100 µM (inactive) | GI50 (HL-60): 55.6 µM (inactive) | GI50 (SNB-19): > 100 µM (inactive) | GI50 (UACC-62): 98.6 µM (inactive) | GI50 (KM12): > 100 µM (inactive) | GI50 (NCI/ADR-RES): > 100 µM (inactive) | GI50 (SN12C): > 100 µM (inactive) | GI50 (TK-10): > 100 µM (inactive)

CCN(CC)CCNc1ccc([N+](=O)[O-])c2nc3ccc(OC)cc3c(N)c12
GI50 (MDA-MB-435): 1.45 µM (inactive) | GI50 (Hs-578T): 1.27 µM (inactive) | GI50 (A549): 1.27 µM (inactive) | GI50 (U-251): 1.62 µM (inactive) | GI50 (HCT-116): 0.151 µM (active) | GI50 (SF-539): 1.68 µM (inactive) | GI50 (T47D): 1.26 µM (inactive) | GI50 (HCT-15): 1.27 µM | GI50 (SF-295): 1.37 µM (inactive) | GI50 (NCI-H23): 1.64 µM (inactive) | GI50 (HL-60): 0.0826 µM (active) | GI50 (SNB-19): 1.67 µM (inactive) | GI50 (UACC-62): 1.7 µM (inactive) | GI50 (KM12): 1.12 µM (inactive) | GI50 (NCI/ADR-RES): 1.24 µM (inactive) | GI50 (SN12C): 1.44 µM (inactive) | GI50 (TK-10): 1.57 µM (inactive)

COc1ccnc2c1C(=O)c1nc3ccccc3c3ccnc-2c13
GI50 (MDA-MB-435): 0.396 µM (active) | GI50 (Hs-578T): 1.55 µM (inactive) | GI50 (A549): 0.142 µM (active) | GI50 (U-251): 0.204 µM (active) | GI50 (HCT-116): 0.0902 µM (active) | GI50 (SF-539): 0.373 µM (active) | GI50 (T47D): 0.291 µM (active) | GI50 (HCT-15): < 0.01 µM | GI50 (SF-295): 0.169 µM (active) | GI50 (NCI-H23): 0.271 µM (active) | GI50 (HL-60): 0.06 µM (active) | GI50 (SNB-19): 0.182 µM (active) | GI50 (UACC-62): 0.136 µM (active) | GI50 (KM12): 0.101 µM (active) | GI50 (NCI/ADR-RES): 0.0713 µM (active) | GI50 (SN12C): 0.112 µM (active) | GI50 (TK-10): 0.324 µM (active)

OC1OC(c2ccc[nH]2)C(F)(F)C(F)(F)C1(F)F (stereo unspecified)
GI50 (MDA-MB-435): > 100 µM (inactive) | GI50 (Hs-578T): > 100 µM (inactive) | GI50 (A549): > 100 µM (inactive) | GI50 (U-251): > 100 µM (inactive) | GI50 (HCT-116): > 100 µM (inactive) | GI50 (SF-539): > 100 µM (inactive) | GI50 (T47D): > 100 µM (inactive) | GI50 (HCT-15): > 100 µM | GI50 (SF-295): > 100 µM (inactive) | GI50 (HL-60): 43.5 µM (inactive) | GI50 (SNB-19): > 100 µM (inactive) | GI50 (UACC-62): > 100 µM (inactive) | GI50 (KM12): > 100 µM (inactive) | GI50 (NCI/ADR-RES): > 100 µM (inactive) | GI50 (SN12C): > 100 µM (inactive) | GI50 (TK-10): > 100 µM (inactive)

CC(C)CCCC(C)[C@H]1CC[C@H]2n3c(nnc3-c3ccccc3)CCC[C@]12C (stereo partly specified)
GI50 (MDA-MB-435): 10.7 µM (inactive) | GI50 (Hs-578T): 18.4 µM (inactive) | GI50 (A549): 9.86 µM (inactive) | GI50 (U-251): 7.19 µM (inactive) | GI50 (HCT-116): 9.48 µM (inactive) | GI50 (SF-539): 11.9 µM (inactive) | GI50 (T47D): 11.7 µM (inactive) | GI50 (HCT-15): 13.8 µM | GI50 (SF-295): 9.08 µM (inactive) | GI50 (NCI-H23): 12.4 µM (inactive) | GI50 (HL-60): 3.54 µM (inactive) | GI50 (SNB-19): 11.8 µM (inactive) | GI50 (UACC-62): 12.4 µM (inactive) | GI50 (KM12): 28.8 µM (inactive) | GI50 (NCI/ADR-RES): 9.93 µM (inactive) | GI50 (SN12C): 8.91 µM (inactive) | GI50 (TK-10): 21.5 µM (inactive)

Cc1ccc2c(c1)C(C(=O)N[C@@H]1C(=O)N3[C@@H]1SC(C)(C)[C@@H]3C(=O)O)OCCC2 (stereo partly specified)
GI50 (MDA-MB-435): > 100 µM (inactive) | GI50 (Hs-578T): > 100 µM (inactive) | GI50 (A549): > 100 µM (inactive) | GI50 (U-251): > 100 µM (inactive) | GI50 (HCT-116): > 100 µM (inactive) | GI50 (SF-539): > 100 µM (inactive) | GI50 (T47D): > 100 µM (inactive) | GI50 (HCT-15): > 100 µM | GI50 (SF-295): > 100 µM (inactive) | GI50 (NCI-H23): > 100 µM (inactive) | GI50 (HL-60): > 100 µM (inactive) | GI50 (SNB-19): > 100 µM (inactive) | GI50 (UACC-62): > 100 µM (inactive) | GI50 (KM12): > 100 µM (inactive) | GI50 (NCI/ADR-RES): > 100 µM (inactive) | GI50 (SN12C): > 100 µM (inactive) | GI50 (TK-10): > 100 µM (inactive)

COc1cc2c3c(c1Oc1nnnn1-c1ccccc1)-c1c(ccc4c1OCO4)C[C@H]3N(C)CC2
GI50 (MDA-MB-435): 20.2 µM (inactive) | GI50 (Hs-578T): 28.4 µM (inactive) | GI50 (A549): 45.6 µM (inactive) | GI50 (U-251): 69 µM (inactive) | GI50 (HCT-116): 31.7 µM (inactive) | GI50 (SF-539): > 100 µM (inactive) | GI50 (T47D): 33.7 µM (inactive) | GI50 (HCT-15): 21.6 µM | GI50 (SF-295): 32.2 µM (inactive) | GI50 (NCI-H23): 36.6 µM (inactive) | GI50 (HL-60): 15.1 µM (inactive) | GI50 (SNB-19): 65.5 µM (inactive) | GI50 (UACC-62): 14.3 µM (inactive) | GI50 (KM12): 32.1 µM (inactive) | GI50 (NCI/ADR-RES): 35.7 µM (inactive) | GI50 (SN12C): 32.4 µM (inactive) | GI50 (TK-10): 75.5 µM (inactive)

CCOC(=O)/C=C/CCC(C)(C)COC(C)=O
GI50 (MDA-MB-435): > 10 µM (inactive) | GI50 (Hs-578T): > 10 µM (inactive) | GI50 (A549): > 10 µM (inactive) | GI50 (U-251): > 10 µM (inactive) | GI50 (HCT-116): > 10 µM (inactive) | GI50 (SF-539): > 10 µM (inactive) | GI50 (T47D): > 10 µM (inactive) | GI50 (HCT-15): > 10 µM | GI50 (SF-295): > 10 µM (inactive) | GI50 (NCI-H23): > 10 µM (inactive) | GI50 (HL-60): > 10 µM (inactive) | GI50 (SNB-19): > 10 µM (inactive) | GI50 (UACC-62): > 10 µM (inactive) | GI50 (KM12): > 10 µM (inactive) | GI50 (NCI/ADR-RES): > 10 µM (inactive) | GI50 (SN12C): > 10 µM (inactive) | GI50 (TK-10): > 10 µM (inactive)

O=S(=O)(/N=S(/Nc1ccccc1)C(F)(F)Cl)c1ccccc1 (stereo unspecified)
GI50 (MDA-MB-435): > 100 µM (inactive) | GI50 (Hs-578T): > 100 µM (inactive) | GI50 (A549): > 100 µM (inactive) | GI50 (U-251): > 100 µM (inactive) | GI50 (HCT-116): > 100 µM (inactive) | GI50 (SF-539): > 100 µM (inactive) | GI50 (T47D): > 100 µM (inactive) | GI50 (HCT-15): > 100 µM | GI50 (SF-295): > 100 µM (inactive) | GI50 (NCI-H23): > 100 µM (inactive) | GI50 (HL-60): > 100 µM (inactive) | GI50 (SNB-19): > 100 µM (inactive) | GI50 (UACC-62): > 100 µM (inactive) | GI50 (KM12): > 100 µM (inactive) | GI50 (NCI/ADR-RES): > 100 µM (inactive) | GI50 (SN12C): > 100 µM (inactive) | GI50 (TK-10): > 100 µM (inactive)

Cc1ccc(CC[PH](=O)CCc2ccc(C)nc2)cn1
GI50 (MDA-MB-435): > 100 µM (inactive) | GI50 (Hs-578T): > 100 µM (inactive) | GI50 (U-251): > 100 µM (inactive) | GI50 (HCT-116): > 100 µM (inactive) | GI50 (SF-539): > 100 µM (inactive) | GI50 (T47D): > 100 µM (inactive) | GI50 (HCT-15): > 100 µM | GI50 (SF-295): > 100 µM (inactive) | GI50 (NCI-H23): > 100 µM (inactive) | GI50 (HL-60): > 100 µM (inactive) | GI50 (SNB-19): > 100 µM (inactive) | GI50 (UACC-62): > 100 µM (inactive) | GI50 (KM12): > 100 µM (inactive) | GI50 (NCI/ADR-RES): > 100 µM (inactive) | GI50 (SN12C): > 100 µM (inactive) | GI50 (TK-10): > 100 µM (inactive)

C/C=C(/C)C(=O)O[C@H](C[C@@H](C)[C@H]1CC(c2ccoc2)OC1=O)[C@@]1(C)C(=O)CCC2O[C@]21C (stereo partly specified)
GI50 (MDA-MB-435): > 100 µM (inactive) | GI50 (Hs-578T): > 100 µM (inactive) | GI50 (A549): > 100 µM (inactive) | GI50 (U-251): > 100 µM (inactive) | GI50 (HCT-116): > 100 µM (inactive) | GI50 (SF-539): > 100 µM (inactive) | GI50 (T47D): > 100 µM (inactive) | GI50 (HCT-15): > 100 µM | GI50 (SF-295): > 100 µM (inactive) | GI50 (NCI-H23): > 100 µM (inactive) | GI50 (HL-60): > 100 µM (inactive) | GI50 (SNB-19): > 100 µM (inactive) | GI50 (UACC-62): > 100 µM (inactive) | GI50 (KM12): > 100 µM (inactive) | GI50 (NCI/ADR-RES): > 100 µM (inactive) | GI50 (TK-10): > 100 µM (inactive)
